Measurements as given in article PMC8161026, “Synthesis and Anticancer Activity Evaluation of 5-[2-Chloro-3-(4-nitrophenyl)-2-propenylidene]-4-thiazolidinones” (Molecules, 2021).

Experiments:
SK-MEL-28 = SK-MEL-28 (Melanoma), 48 h, SRB
HCT-15 = test: NCI DTP 60 cell line screen, SRB; settings: for TGI: HCT-15 (Colon Cancer), 48 h, SRB; for GI50 / CC50: Homo sapiens, HCT-15, 48 h; for CC50: read-out: LC50
K-562 = settings: for TI (Therapeutic Index): GI50 (normal blood lymphocyte)/GI50 (K-562); for TGI: K-562 (Leukemia), 48 h, SRB
HCT-116 = test: cells; settings: Homo sapiens, HCT-116, 48 h; for CC50: read-out: LC50
UACC-62 = test: NCI DTP 60 cell line screen, SRB; settings: for GI50 / CC50: Homo sapiens, UACC-62, 48 h; for CC50: read-out: LC50; for TGI: UACC-62 (Melanoma), 48 h, SRB
IGROV1 = test: NCI DTP 60 cell line screen, SRB; settings: for GI50 / CC50: Homo sapiens, IGROV-1, 48 h; for CC50: read-out: LC50; for TGI: IGROV1 (Ovarian Cancer), 48 h, SRB
PC-3 = test: cells; settings: Homo sapiens, PC-3, 48 h; for CC50: read-out: LC50
U251 [1] = test: cells; settings: Homo sapiens, U-251, 48 h; for CC50: read-out: LC50
MCF-7 = test: NCI DTP 60 cell line screen, SRB; settings: for GI50 / CC50: Homo sapiens, MCF7, 48 h; for CC50: read-out: LC50; for TGI: MCF-7 (Breast Cancer), 48 h, SRB
KM12 [2] = settings: KM12 (Colon Cancer), 48 h, SRB
HL-60(TB) = settings: for TI (Therapeutic Index): GI50 (normal blood lymphocyte)/GI50 (HL-60(TB)); for TGI: HL-60(TB) (Leukemia), 48 h, SRB
BT-549 = test: NCI DTP 60 cell line screen, SRB; settings: for TGI: BT-549 (Breast Cancer), 48 h, SRB; for GI50 / CC50: Homo sapiens, BT-549, 48 h; for CC50: read-out: LC50
MDA-MB-231/ATCC = test: NCI DTP 60 cell line screen, SRB; settings: for GI50 / CC50: Homo sapiens, MDA-MB-231, 48 h; for CC50: read-out: LC50; for TGI: MDA-MB-231/ATCC (Breast Cancer), 48 h, SRB
SN12C = test: cells; settings: Homo sapiens, 48 h; for CC50: read-out: LC50
A549/ATCC = A549/ATCC (Non-Small Cell Lung Cancer), 48 h, SRB
KM12 [3] = test: cells; settings: Homo sapiens, KM12, 48 h; for CC50: read-out: LC50
OVCAR-8 = test: NCI DTP 60 cell line screen, SRB; settings: for GI50 / CC50: Homo sapiens, OVCAR-8, 48 h; for CC50: read-out: LC50; for TGI: OVCAR-8 (Ovarian Cancer), 48 h, SRB
MOLT-4 = settings: for TI (Therapeutic Index): GI50 (normal blood lymphocyte)/GI50 (MOLT-4); for TGI: MOLT-4 (Leukemia), 48 h, SRB
AGS (gastric cancer) = test: MTT cell viability assay; type: cell-based; settings: Homo sapiens, 24 h
Method in brief: (§1)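 MTT assay on AGS, DLD-1, MCF-7 and MDA-MB-231 cancer cell lines, with growth inhibition reported as GI50.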

[4] = tested on: DLD-1 (human colon cancer); test: MTT cell viability assay; type: cell-based; settings: DLD-1, MTT, 24 h
Method in brief: as §1

MCF-7 (breast cancer) = test: MTT cell viability assay; type: cell-based; settings: Homo sapiens, MCF7; MCF-7, MTT, 24 h
Method in brief: as §1

SNB-19 = test: NCI DTP 60 cell line screen, SRB; settings: for GI50 / CC50: Homo sapiens, SNB-19, 48 h; for CC50: read-out: LC50; for TGI: SNB-19 (CNS Cancer), 48 h, SRB
SR = test: cells; settings: Homo sapiens, 48 h; for CC50: read-out: LC50
U251 [5] = settings: U251 (CNS Cancer), 48 h, SRB
NCI-322M = test: NCI DTP 60 cell line screen, SRB; settings: 48 h; for GI50 / CC50: Homo sapiens, NCI-322M; for CC50: read-out: LC50; for TGI: NCI-322M (Non-Small Cell Lung Cancer), SRB
SW-620 = test: cells; settings: Homo sapiens, SW-620, 48 h; for CC50: read-out: LC50
CAKI-1 = test: NCI DTP 60 cell line screen, SRB; settings: for TGI: CAKI-1 (Renal Cancer), 48 h, SRB; for GI50 / CC50: Homo sapiens, CAKI-1, 48 h; for CC50: read-out: LC50

## O=C(O)CCN1C(=O)/C(=C/C(Cl)=C/c2ccc([N+](=O)[O-])cc2)SC1=S [Compound 2h, 3-{5-[(Z,2Z)-2-Chloro-3-(4-nitrophenyl)-2-propenylidene]-4-oxo-2-thioxothiazolidin-3-yl}propanoic acid]
SK-MEL-28
  TGI: 23.6 µM
HCT-15
  TGI: 2.96 µM
  GI50: 0.23 µM
  CC50: > 100 µM
K-562
  TI (Therapeutic Index): 257.26
  TGI: 2.83 µM
HCT-116
  GI50: 0.27 µM
  CC50: > 100 µM
UACC-62
  GI50: 1.23 µM
  CC50: 7.18 µM
  TGI: 2.97 µM
IGROV1
  GI50: 0.794 µM
  CC50: 43.1 µM
  TGI: 3.68 µM
PC-3
  GI50: 0.712 µM
  CC50: 41.9 µM
U251 [1]
  GI50: 0.149 µM
  CC50: > 100 µM
MCF-7
  GI50: 0.239 µM
  CC50: > 100 µM
  TGI: 14.4 µM
KM12 [2]
  TGI: 29.5 µM
HL-60(TB)
  TI (Therapeutic Index): 157.18
  TGI: 1.87 µM
BT-549
  TGI: 0.920 µM
  GI50: 0.247 µM
  CC50: 36.3 µM
MDA-MB-231/ATCC
  GI50: 1.08 µM
  CC50: 25.9 µM
  TGI: 4.86 µM
SN12C
  GI50: 1.05 µM
  CC50: 8.48 µM
A549/ATCC
  TGI: 7.62 µM
KM12 [3]
  GI50: 0.639 µM
  CC50: > 100 µM
OVCAR-8
  GI50: 0.244 µM
  CC50: > 100 µM
  TGI: 11.5 µM
MOLT-4
  TI (Therapeutic Index): 3408.75
  TGI: 19.7 µM
AGS (gastric cancer)
  GI50: 2.69 µM
[4]
  GI50: 3.67 µM
MCF-7 (breast cancer)
  GI50: 3.62 µM
SNB-19
  GI50: 0.658 µM
  CC50: 83.7 µM
  TGI: 26.3 µM
SR
  GI50: < 0.01 µM
  CC50: > 100 µM
U251 [5]
  TGI: 2.00 µM
NCI-322M
  GI50: 2.83 µM
  CC50: 63.4 µM
  TGI: 10.9 µM
SW-620
  GI50: < 0.01 µM
  CC50: > 100 µM
CAKI-1
  TGI: 6.14 µM
  GI50: 0.485 µM
  CC50: 47.1 µM

## O=C1/C(=C/C(Cl)=C/c2ccc([N+](=O)[O-])cc2)SC(=S)N1c1ccc(O)cc1 [Compound 2f, 5-[(Z,2Z)-2-Chloro-3-(4-nitrophenyl)-2-propenylidene]-3-(4-hydroxyphenyl)-2-thioxo-4-thiazolidinone]
SK-MEL-28
  TGI: 47.7 µM
HCT-15
  TGI: > 100 µM
  GI50: 0.409 µM
  CC50: > 100 µM
K-562
  TI (Therapeutic Index): >191.94
  TGI: > 100 µM
HCT-116
  GI50: 1.27 µM
  CC50: 6.92 µM
UACC-62
  GI50: 1.69 µM
  CC50: 8.78 µM
  TGI: 3.85 µM
IGROV1
  GI50: 1.63 µM
  CC50: > 100 µM
  TGI: 6.13 µM
PC-3
  GI50: 2.29 µM
  CC50: > 100 µM
U251 [1]
  GI50: 0.368 µM
  CC50: 38.9 µM
MCF-7
  GI50: 0.401 µM
  CC50: > 100 µM
  TGI: 28.0 µM
KM12 [2]
  TGI: > 100 µM
HL-60(TB)
  TI (Therapeutic Index): >206.19
  TGI: 4.48 µM
BT-549
  TGI: 7.71 µM
  GI50: 1.55 µM
  CC50: > 100 µM
MDA-MB-231/ATCC
  GI50: 2.18 µM
  CC50: 92.1 µM
  TGI: 12.2 µM
SN12C
  GI50: 1.98 µM
  CC50: > 100 µM
A549/ATCC
  TGI: 6.47 µM
KM12 [3]
  GI50: 2.85 µM
  CC50: > 100 µM
OVCAR-8
  GI50: 1.14 µM
  CC50: > 100 µM
  TGI: 22.9 µM
MOLT-4
  TI (Therapeutic Index): >257.07
  TGI: > 100 µM
SNB-19
  GI50: 10 µM
  CC50: 97.5 µM
  TGI: 32.0 µM
SR
  GI50: 0.01 µM
  CC50: > 100 µM
U251 [5]
  TGI: 3.06 µM
NCI-322M
  GI50: 2.49 µM
  CC50: > 100 µM
  TGI: 9.02 µM
SW-620
  GI50: 0.037 µM
  CC50: > 100 µM
CAKI-1
  TGI: > 100 µM
  GI50: 4.44 µM
  CC50: > 100 µM
